For assay [1], the system named is B/Victoria neuraminidase (NA). Format: biochemical, influenza B/Victoria lineage virus.
The next assay has as its system A(H1N1)pdm09 viruses. The assay is classed as cell-based, influenza A(H1N1)pdm09 virus.
The next assay has as its system A(H3N2) viruses. The assay is classed as cell-based, influenza A(H3N2) virus.
The next assay has as its system influenza A viruses. Format: cell-based, influenza A virus.
Another assay concerns type A viruses. Particulars: cited from earlier work.
Assay [2] has as its target A (H1N1)pdm09 neuraminidase (NA). Format: biochemical, influenza A (H1N1)pdm09 virus.

We go through three molecules from publication PMC12621569 (Antiviral research, 2025).

For the molecule `CCOC(=O)C1=C[C@@H](OC(CC)CC)[C@H](NC(C)=O)[C@@H](N)C1` [Oseltamivir, oseltamivir], the “effect of substitution on inhibition of NA activity” value in assay [1] is on record as “improving the ability”.
Turning to `O=C1c2c(O)c(=O)ccn2N([C@@H]2c3ccccc3SCc3c2ccc(F)c3F)[C@@H]2COCCN12` [Baloxavir, baloxavir], the “effect on baloxavir susceptibility” value with A(H1N1)pdm09 viruses is “no effect”. Moreover, the “effect on baloxavir susceptibility” value in the assay on A(H3N2) viruses was “no effect”. Besides, the “change in EC50” value with influenza A viruses is on record as “• Natural polymorphism • No or little change in EC50 (<3-fold)”. Also, in the assay on type A viruses, the “elevated baloxavir EC50 in cell culture” value was “• Primary treatment-emergent; associated with diminished virologic response in clinical settings • Rarely as natural polymorphism • Confers elevated baloxavir EC50 in cell culture (11–614-fold)” and the “variably elevated baloxavir EC50” value is recorded as “• Most are natural polymorphisms • Some emerged post baloxavir exposure or introduced for assessment • Confer variably elevated baloxavir EC50 (<3–19 fold)”.
Take `CCC(CC)[C@H](NC(C)=O)[C@@H]1[C@H](O)[C@@H](C(=O)O)C[C@H]1N=C(N)N` [Peramivir, peramivir]: the “IC50 Fold” value in assay [2] stood at 301 fold. In assay [1], the “IC50 fold vs NA sequence-matched virus” value turned out to be 14 fold and the “effect of substitution on inhibition of NA activity” value is reported as “improving the ability”.
